Experimental data taken from US5430031A, “Serotoninergic ergoline derivatives” (Farmitalia Carlo Erba S.r.l., priority 1992, dated 1995).
Read-outs that look alike come from different tables or passages of the source.

Legend:
[1] = target: T1, serotonin 1A (5-HT1A) receptor (Rattus norvegicus, UniProt P19327); experiment: 5-HT1A receptor affinity, 3H-8-OH-DPAT binding test (Experiment 1)
T1 construct: Freezed hippocampus dissected out from rats were homogenized; from tissue; host or cells: rat hippocampus, crude synaptosome membranes
T1 sequence (P19327 1-422): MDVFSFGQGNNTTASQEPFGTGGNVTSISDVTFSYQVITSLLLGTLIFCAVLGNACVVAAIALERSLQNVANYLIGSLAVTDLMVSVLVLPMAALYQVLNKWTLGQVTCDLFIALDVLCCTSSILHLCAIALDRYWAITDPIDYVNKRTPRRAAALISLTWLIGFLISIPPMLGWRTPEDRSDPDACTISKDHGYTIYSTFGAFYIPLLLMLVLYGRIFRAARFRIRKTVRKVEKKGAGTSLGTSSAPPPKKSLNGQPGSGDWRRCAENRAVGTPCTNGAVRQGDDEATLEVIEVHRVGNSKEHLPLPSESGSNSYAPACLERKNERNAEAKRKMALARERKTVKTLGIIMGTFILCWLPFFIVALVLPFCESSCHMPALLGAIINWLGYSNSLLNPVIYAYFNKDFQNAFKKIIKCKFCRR
Description: Experiment 1: affinity for serotonin 1A (5-HT1A) receptor [^3 H-8-Hydroxy-2-dipropylaminotetralin (^3 H-8-OH-DPAT)binding test]
After completion of reaction, the suspension was centrifuged at 40,000×g for 20 minutes at 0° C.
Then to the mixture was added 5 ml of ice-cold 50 mM Tris-CHI buffer (pH 7.4) rapidly vacuum-filtered through Whatman® GF/B filters and was washed twice with 5 ml of the same buffer. The radioactivity of the residue remaining on the filters was measured by liquid scintillation counter. Nonspecific binding was determined under the presence of 10^-5 M serotonin (5-HT).

dopamine 2 (D2) receptor = target: T2, dopamine 2 (D2) receptor (Rattus norvegicus, UniProt P61169); experiment: D2 receptor affinity, 3H-Spiperone binding test (Experiment 3); settings: 3H-Spiperone 0.2 nM, corpus striatum, 37° C., 20 minutes; read-out: RECEPTOR BINDING I-C50 D2
T2 construct: Freezed corpus striatum dissected out from rats were homogenized; from tissue; host or cells: rat corpus striatum, crude synaptosome membranes
T2 sequence (P61169 whole entry): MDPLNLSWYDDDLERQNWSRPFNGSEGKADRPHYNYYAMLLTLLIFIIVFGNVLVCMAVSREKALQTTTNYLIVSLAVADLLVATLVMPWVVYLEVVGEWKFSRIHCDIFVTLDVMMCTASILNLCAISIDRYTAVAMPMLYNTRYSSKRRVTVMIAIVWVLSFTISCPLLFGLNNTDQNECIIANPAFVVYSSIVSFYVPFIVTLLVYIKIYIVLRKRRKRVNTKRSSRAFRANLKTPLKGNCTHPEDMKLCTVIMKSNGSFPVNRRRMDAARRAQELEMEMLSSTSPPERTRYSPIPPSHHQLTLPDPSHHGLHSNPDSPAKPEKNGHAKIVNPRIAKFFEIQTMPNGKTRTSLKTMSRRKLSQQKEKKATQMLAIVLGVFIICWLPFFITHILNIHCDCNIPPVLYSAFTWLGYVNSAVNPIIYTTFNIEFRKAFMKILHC
Description: Experiment 3: affinity for dopamine 2 (D2)receptor (^3 H-Spiperone binding test.)
The resulting pellet was homogenized in 150 volumes of 50 mM Tris-HCl buffer (PH 7.1) containing 120 mM potassium chloride, 2 mM calcium chloride, 1 mM magnesium chloride, 0,1% ascorbic acid and 10 μM pargyline. The suspension was incubated at 37° C. for 10 minutes and then provided as synaptosome membranes solution for the next assays.
To the aliquots (900μ) of synaptosome membranes solution were added 50 μl of ^3 H-Spiperone solution at the terminal concentration of 0.2 nM and 50 μl of test compound solution or 50 μl of its medium, and incubated at 37° C. for 20 minutes. After completion of the reaction, the mixture was rapidly vacuum-filtered through Whatman® GF/B filters. The filters were washed three times with 5 ml of the above buffer, and then the radioactivity of the residue remaining on the filters was measured by liquid scintillation counter.

[2] = target: serotonin 2 (5-HT2) receptor (Rattus norvegicus, UniProt P14842); experiment: 5-HT2 receptor affinity, 3H-Ketanserin binding test (Experiment 2)
serotonin 2 (5-HT2) receptor, sequence (P14842 whole entry): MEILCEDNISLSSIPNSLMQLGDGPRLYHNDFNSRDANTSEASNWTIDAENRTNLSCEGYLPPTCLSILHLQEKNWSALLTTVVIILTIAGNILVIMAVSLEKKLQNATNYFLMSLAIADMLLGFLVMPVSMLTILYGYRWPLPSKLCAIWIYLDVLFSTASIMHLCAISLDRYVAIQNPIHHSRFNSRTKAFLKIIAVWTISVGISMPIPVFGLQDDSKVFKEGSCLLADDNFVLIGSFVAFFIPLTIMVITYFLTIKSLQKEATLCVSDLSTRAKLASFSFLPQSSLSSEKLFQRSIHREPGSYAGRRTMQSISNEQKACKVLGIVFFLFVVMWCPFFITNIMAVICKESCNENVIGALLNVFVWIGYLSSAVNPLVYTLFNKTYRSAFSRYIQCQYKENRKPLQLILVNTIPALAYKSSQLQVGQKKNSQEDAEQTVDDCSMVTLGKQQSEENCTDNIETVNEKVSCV
Description: Experiment 2: affinity for serotonin 2(5-HT2)receptor (^3 H-Ketanserin binding test).
The suspension was centrifuged at 40,000×g for 20 minutes at 0° C. again. The resulting pellet was homogenized in 100 volumes of the above buffer and provided as synaptosome membranes solution for the next assay.
To the aliquots (900μ) of synaptosome membranes solution were added 50 μl solution of ^3 H-Ketanserin solution at the terminal concentration of 0.2 mM and 50 μl of test compound or its medium, and incubated at 37° C. for 20 minutes. After completion of the reaction, the mixture was rapidly vacuum-filtered through Whatman® GF/B filters. The filters were washed three times with 5 ml of the above buffer, and then the radioactivity of the residue remaining on the filters was measured by liquid scintillation counter. Non specific binding was determined under the presence of 10 μM of mianserin.

group-caged mice = experiment: stress-induced hyperthermia, screening model of anxiety; assay type: in vivo; settings: Mouse, ip
Source text: This procedure is based upon the antagonism of an increase in rectal temperature observed in group-caged mice as they are being removed from their cohorts.

| SMILES | IC50 ([1]; read-out: RECEPTOR BINDING I-C50 5-HT1A, 3H-8-OH-DPAT 0.2 nM, rat hippocampus, 37° C., 10 minutes) [µM] | IC50 (dopamine 2 (D2) receptor) [µM] | IC50 ([2]; read-out: RECEPTOR BINDING I-C50 5-HT2, 3H-Ketanserin 0.2 mM (so in the source), rat cerebral cortex, 37° C., 20 minutes) [µM] | IC50 [1] [µM] | IC50 [2] [µM] | ED50 (group-caged mice) [mg/kg] |
| --- | --- | --- | --- | --- | --- | --- |
| COC(=O)C1CC2c3cc(C(C)(C)C)cc4[nH]c(SC)c(c34)CC2N(C)C1 (stereo not drawn) [Example 1, 2-Thiomethyl-6-methyl-8β-methoxycarbonyl (13,14)-t-butyl-ergoline] | 0.03 | 5.2 | 6.7 | – | – | – |
| COC(=O)[C@@H]1C[C@@H]2c3cc(C(C)(C)C)cc4[nH]cc(c34)C[C@H]2N(C)C1 [Example 2, 6-Methyl-8β-methoxycarbonyl-13-t-butyl-ergoline] | – | 2.77 | – | 0.01 | 1.87 | – |
| CN1C[C@H](CO)C[C@@H]2c3cc(C(C)(C)C)cc4[nH]cc(c34)C[C@H]21 [Example 3, 6-Methyl-8β-hydroxymethyl-13-t-butyl-ergoline] | – | 4.45 | – | 0.01 | 1.1 | – |
| CN1C[C@H](CN)C[C@@H]2c3cc(C(C)(C)C)cc4[nH]cc(c34)C[C@H]21 [Example 4, 6-Methyl-8β-aminomethyl-13-t-butyl-ergoline] | – | 3.33 | – | 0.01 | 0.7 | – |
| CN1CC(CNC(=O)Cc2ccccc2)CC2c3cc(C(C)(C)C)cc4[nH]cc(c34)CC21 (stereo not drawn) [Example 6, 6-Methyl-8β.phenylacetylaminomethyl-13-t-butyl-ergoline] | – | 1.25 | – | 0.008 | 0.7 | 0.06 |
| CN1C[C@H](CNC(=O)C(C)(C)C)C[C@@H]2c3cc(C(C)(C)C)cc4[nH]cc(c34)C[C@H]21 [Example 7, 6-Methyl-8β-pivaloylaminomethyl-13-t-butyl-ergoline] | – | 5.1 | – | 0.01 | 1.2 | 0.06 |
| CN1C[C@H](CNC(=O)c2ccncc2)C[C@@H]2c3cc(C(C)(C)C)cc4[nH]cc(c34)C[C@H]21 [Example 8, 6-Methyl-8β-isonicotinoylaminomethyl-13-t-butyl-ergoline] | – | 2.9 | – | 0.08 | 2.1 | – |
| CN1C[C@H](CNC(=O)c2cncc(Br)c2)C[C@@H]2c3cc(C(C)(C)C)cc4[nH]cc(c34)C[C@H]21 [Example 9, 6-methyl-8β-(5-bromo-nicotinoyl)aminomethyl-13-t-butyl-ergoline] | – | 2.1 | – | 0.01 | 1.1 | 0.03 |
| CCOC(=O)NC[C@@H]1C[C@@H]2c3cc(C(C)(C)C)cc4[nH]cc(c34)C[C@H]2N(C)C1 [Example 11, 6-Methyl-8β-ethoxycarbonylaminomethyl-13-t-butyl-ergoline] | – | 3.1 | – | 0.05 | 3.48 | 0.06 |
| CN1C[C@H](CNC(=O)Nc2ccccc2)C[C@@H]2c3cc(C(C)(C)C)cc4[nH]cc(c34)C[C@H]21 [Example 12, 6-Methyl-8β-phenylaminocarbonylaminomethyl-13-t-butyl-ergoline] | – | 2.1 | – | 0.01 | 6.15 | – |
| CN1C[C@H](CNC(=O)C2CCCCC2)C[C@@H]2c3cc(C(C)(C)C)cc4[nH]cc(c34)C[C@H]21 [Example 13, 6-Methyl-8β-cyclohexylcarbonylaminomethyl-13-t-butyl-ergoline] | – | 1.7 | – | 0.005 | 1.1 | – |
| Cc1cc(C(=O)NCC2CC3c4cc(C(C)(C)C)cc5[nH]cc(c45)CC3N(C)C2)nn1C (stereo not drawn) [Example 16, 6-Methyl-8β-(1,5-dimethyl-3-pyrazoyl)aminomethyl-13-t-butyl-ergoline] | – | – | – | – | – | 0.06 |
| Cc1nc(C(=O)NCC2CC3c4cc(C(C)(C)C)cc5[nH]cc(c45)CC3N(C)C2)cs1 (stereo not drawn) [Example 17, 6-Methyl-8β-(2-methyl-4-thiazoyl)aminomethyl-13-t-butyl-ergoline] | – | – | – | – | – | 0.06 |
